Experimental data reported in patent US20200261443A1, “Use of Anti-Ischemic Compounds in Treating Acute-On-Chronic Liver Failure” (Martin Pharmaceuticals Inc., priority 2019, published 2020).
“Also recorded” adds a separate entry of the source. Where two headings read alike, the source gives them in different places.

Legend:
[1] = tested on: patients with acute decompensation of cirrhosis and suspected ACLF; assay: Three-arm, randomized, controlled TMZ study in suspected ACLF: mortality; type: in vivo, human; details: for Treatment effect on Day 90 mortality: dihydrochloride
Description: A three-arm, randomized, controlled study enrolled 133 subjects presenting with acute decompensation of cirrhosis and suspected ACLF.
Patient were divided into two groups by Child Pugh score: Class A or B (<10) and Class C (≥10).
[…] 1. The ACLF3 group was not analyzed because of the small numbers.

[2] = TMZ study in suspected ACLF: white blood cell count, platelet count, creatinine clearance; type: in vivo, human; details: throughout the study, TMZ versus control groups; dihydrochloride
Description: A three-arm, randomized, controlled study enrolled 133 subjects presenting with acute decompensation of cirrhosis and suspected ACLF. Included patients presented with a prothrombin time extended by 4-6 seconds or an international normalized ratio of ≥1.5 or any degree of hepatic encephalopathy as assessed by the West Haven criteria.
In view of the overall disturbed immunlological state and the coagulopathy that is common in ACLF, it is important to asertain whether trimetazidine poses an additional risk to ACLF patients in this regard.

[3] = cited from earlier work
liver lipid homeostasis = details: human normal obese subjects; cited from earlier work
[4] = tested on: non-alcoholic steatohepatitis; details: human population; cited from earlier work
[5] = tested on: carbon tetrachloride-induced fulminant liver failure; details: animal model; cited from earlier work
[6] = Day 30, CP < 10, TMZ arm = TMZ + LOLA + SoC, LOLA arm = LOLA + SoC

COc1ccc(CN2CCNCC2)c(OC)c1OC.Cl.Cl [TMZ, 1-(2,3,4-trimethoxybenzyl)piperazine dihydrochloride]
Treatment effect on Day 90 mortality ([1]; ACLF1 population): drug effect was visible; also recorded: Positive results | Treatment effect on Day 90 mortality ([1]; ACLF2 population): drug effect was visible; also recorded: Positive results | Treatment effect on Day 90 mortality ([1]; ACLF population by EASL-CLIF criteria, worst case imputation): highly statistically significant difference; also recorded: robust effect | Treatment effect on Day 90 mortality ([1]; AD population by EASL-CLIF criteria, worst case imputation): not even a trend towards an effect; also recorded: ineffective | 30- and 90-day mortality ([1]; Child Pugh Class C (≥10) subjects): substantial and statistically significant reductions | Alive (number of patients) [1, 6]: 9 | Dead (number of patients) [1, 6]: 2 | Dead (percent of patients) [1, 6]: 18% | Alive (number of patients) ([1]; Day 30, CP ≥ 10): 20 | Dead (number of patients) ([1]; Day 30, CP ≥ 10): 5 | Dead (percent of patients) ([1]; Day 30, CP ≥ 10): 20% | Alive (number of patients) ([1]; Day 90, CP < 10): 7 | Dead (number of patients) ([1]; Day 90, CP < 10): 4 | Dead (percent of patients) ([1]; Day 90, CP < 10): 36% | Alive (number of patients) ([1]; Day 90, CP ≥ 10): 16 | Dead (number of patients) ([1]; Day 90, CP ≥ 10): 9 | Dead (percent of patients) ([1]; Day 90, CP ≥ 10): 36% | Estimated creatinine clearance rate [2]: does not Affect; also recorded: no difference between the TMZ and control groups | Platelet count / thrombocytopenia [2]: does not Affect; also recorded: not causing thrombocytopenia; also recorded: no difference between the TMZ and control groups | White blood cell levels [2]: does not Affect; also recorded: no meaningful difference between the TMZ and control groups | Solubility in water / aqueous solution ([3]; dihydrochloride): highly soluble in water | Solubility in water / aqueous solution ([3]; listed as dihydrochloride form of TMZ, dihydrochloride): very soluble | Effect on liver lipid homeostasis (liver lipid homeostasis): improve liver lipid homeostasis | Effect on parameters associated with non-alcoholic steatohepatitis [4]: improve certain parameters associated with non-alcoholic steatohepatitis | Effectiveness in fulminant liver failure [5]: effectiveness

COc1ccc(CN2CCNCC2)c(OC)c1OC [neutral form of TMZ, 1-(2,3,4-trimethoxybenzyl)piperazine]
Solubility in organic environments [3]: soluble in certain organic environments | Solubility in water / aqueous solution [3]: only sparingly soluble in aqueous solution

L-ornithine-L-aspartate [LOLA]
Alive (number of patients) [1, 6]: 10 | Alive (number of patients) ([1]; Day 30, CP ≥ 10): 16 | Alive (number of patients) ([1]; Day 90, CP < 10): 6 | Alive (number of patients) ([1]; Day 90, CP ≥ 10): 6
